Results: patent US10495648B2, “Methods of treating liver fibrosis” (GILEAD SCIENCES, INC., priority 2017, dated 2019)
Where “and” joins values, the source holds several entries; their conditions need not be identical. Equal values may be shown once.

Columns and labels:
Type in all cases: in vivo, human
plasma miRNAs = assay: Plasma miRNA qPCR in phase 2 study GS-US-384-1497, miRNAs modulated by SEL treatment
Source text: Plasma samples were obtained from 72 subjects enrolled in the GS-US-384-1497 Gilead study. The study is a phase 2 study evaluating the safety, tolerability, and efficacy of selonsertib (ASK1 inhibitor) alone or in combination with simtuzumab (SIM) in subjects with Nonalcoholic Steatohepatitis (NASH) and fibrosis stages F2-F3. The inclusion criteria included patients with metabolic syndrome, serum ALT≥1.5×ULN and ≤5×ULN, and Fibroscan that measures liver stiffness: ≥7 kPa and <12 kPa, or NAS score greater ≥5 with fibrosis stage 2 to 3.
Total RNA samples were isolated and 301 selected miRNA were measured by qPCR. MiRNA expression levels were normalized using the global mean of all expressed miRNAs. Differential expression analyses were performed using limma method; p-values in multiple comparisons were corrected using the Benjamini-Hochberg method. Spearman correlations were calculated between miRNA expression with fibrosis stage and NAS score at baseline and at week 24.
11 miRNAs (hsa-miR-505-3p, hsa-miR-29a-3p, hsa-miR-215-5p, hsa-miR-148a-3p, hsa-miR-99a-5p, hsa-miR-885-5p, hsa-miR-122-5p, hsa-miR-34a-5p, hsa-miR-365a-3p, hsa-miR-194-5p, hsa-miR-155-5p) with nominal […] were modulated by SEL treatment, see Table 2 below.

NASH patients = assay: Safety and efficacy of SIM in NASH patients, studies GS-US-321-0105 and GS-US-321-0106 (fibrosis)
Method: The miR analysis was expanded to using GS-US-321-0105 and GS-US-321-0106 studies where biopsy proven samples were used from NASH patients. These studies had evaluated the safety and efficacy of Simtuzamab (SIM) in NASH patients. […] It was observed that 20% of the samples had fibrosis improvement, 20% fibrosis […] and for the rest of the subjects the fibrosis remained unchanged. As these samples represented the natural history of fibrosis changes, miR expression was analyzed in these samples.
Subjects in GS-US-384-1497 phase 2 trials were enrolled with F2-3 Stages of fibrosis and subjects in GS-US-321-0105 phase 2 trial were enrolled with F3 Stage of fibrosis and GS-US-321-0106 phase 2 trial subjects were enrolled with F4 stage of fibrosis.

plasma miRs = assay: Plasma miR qPCR in GS-US-321-0105 and GS-US-321-0106, association with SIM treatment
Method: Screen failed subjects were included in the analysis to ensure the miRs were analyzed in all the fibrosis stages. The samples analyzed after quality control, which excluded samples that were hemolyzed and samples that had overall low expression of miRs.
Plasma miRs were isolated with spike-in controls using total RNA isolation kit (Exiqon, Denmark). Complementary DNA was synthesized with spike-in control using the Exiqon cDNA synthesis kit and selected plasma miRs (n=157) were measured at BL, W12, and W24 by qPCR using the Exiqon platform (Covance, USA). For the 1497 study, 301 miRs were measured but only 132 miRs were expressed therefore for the 105/106 studies we measured the 132 miRs with 25 additional miRs were measured for the 105/106 study. The data was normalized using Global fit method of normalization.

Cc1cc(F)c(C(=O)Nc2cccc(-c3nncn3C(C)C)n2)cc1-n1cnc(C2CC2)c1 [SEL, selonsertib]
Fold Change miR-29a-3p (plasma miRNAs; 6 mg SEL ± SIM, week 24): −1.23 | Fold Change miR-34a-5p (plasma miRNAs; 6 mg SEL ± SIM, week 24): −1.54 | Fold Change miR-99a-5p (plasma miRNAs; 6 mg SEL ± SIM, week 24): −1.33 | Fold Change miR-122-5p (plasma miRNAs; 6 mg SEL ± SIM, week 24): −1.42 | Fold Change miR-148a-3p (plasma miRNAs; 6 mg SEL ± SIM, week 24): −1.28 | Fold Change miR-194-5p (plasma miRNAs; 6 mg SEL ± SIM, week 24): −1.30 | Fold Change miR-215-5p (plasma miRNAs; 6 mg SEL ± SIM, week 24): −1.27 | Fold Change miR-365a-3p (plasma miRNAs; 6 mg SEL ± SIM, week 24): −1.65 | Fold Change miR-505-3p (plasma miRNAs; 6 mg SEL ± SIM, week 24): −1.24 | Fold Change miR-885-5p (plasma miRNAs; 6 mg SEL ± SIM, week 24): −1.37 | Fold Change miR-34a-5p (plasma miRNAs; 18 mg SEL ± SIM, week 24): −1.33 | Fold Change miR-99a-5p (plasma miRNAs; 18 mg SEL ± SIM, week 24): −1.25 | Fold Change miR-155-5p (plasma miRNAs; 18 mg SEL ± SIM, week 24): 1.33 | Fold Change miR-885-5p (plasma miRNAs; 18 mg SEL ± SIM, week 24): −1.56 | number of miRNAs modulated by SEL treatment (plasma miRNAs; GS-US-384-1497, week 24): 11 and 12

B1: simtuzumab (antibody, chains of the INN, looked up, V domains shown)
VH: QVQLVQSGAEVKKPGASVKVSCKASGYAFTYYLIEWVRQAPGQGLEWIGVINPGSGGTNYNEKFKGRATITADKSTSTAYMELSSLRSEDTAVYFCARNWMNFDYWGQGTTVTVSS
VL: DIVMTQTPLSLSVTPGQPASISCRSSKSLLHSNGNTYLYWFLQKPGQSPQFLIYRMSNLASGVPDRFSGSGSGTDFTLKISRVEAEDVGVYYCMQHLEYPYTFGGGTKVEIK
effect on fibrosis (NASH patients): ineffective at reducing fibrosis | miRs associated with SIM treatment (plasma miRs): no miRs associated with SIM treatment
